According to patent US20200270309A1, “MALEIMIDE GROUP-MODIFIED ANGIOGENESIS INHIBITOR HM-1 AND USE THEREOF” (NANJING ANJI BIOLOGICAL TECHNOLOGY CO., LTD, priority 2017, published 2020):
Peptide text beside a SMILES is read from it. * marks the point of attachment. X65 = O=C1C=CC(=O)N1c1cccc(CCCCCCCCCCCCC(=O)*)c1; X58 = O=C1C=CC(=O)N1c1cccc(CCCCCCCCCCCC(=O)*)c1; X84 = O=C1C=CC(=O)N1c1ccccc1CCCCCCCCCCCCC(=O)*; X72 = O=C1C=CC(=O)N1c1ccccc1CCCCCCCCCCC(=O)*; X66 = O=C1C=CC(=O)N1c1cccc(CCCCCCCC(=O)*)c1; X54 = O=C1C=CC(=O)N1c1cccc(CCCCCCC(=O)*)c1; X75 = O=C1C=CC(=O)N1c1cccc(CC(=O)*)c1

Legend:
splenic lymphocytes = assay: Proliferation of splenic lymphocytes in mice (ConA, MTT); assay type: cell-based; conditions: ConA-stimulated mouse splenic lymphocytes, 48 h
Description: Spleens of mice were taken out under aseptic conditions, washed with blank 1640 culture medium 3 times, ground with a 5 mL syringe core, filtered with a 200-mesh sieve, made into a single cell suspension. The suspension was centrifuged (1000 rpm×5 min), and supernatant was removed. Red blood cells were lysed by Tris-NH4Cl, and placed in ice water bath for 4 min and centrifuged (1000 rpm×5 min). The supernatant was removed, and the cells were washed twice with sterile PBS. Finally, RPMI 1640 culture solution (5 mL) containing 10% calf serum was added to suspend the cells. The cells were counted and the cell concentration was adjusted to 5×10^6 cells/mL, and the cells were cultured in a 96-well culture plate.
Blank control group, concanavalin A (ConA) group and dexamethasone (Dex) group were set in the experiment, and polypeptide X1-X90 groups were set as test groups. After 100 μL of splenic lymphocytes suspension per well was added into each group, 100 μL of blank 1640 culture solution was added into the blank control group, ConA was added into the ConA group, Dex was added into the Dex group, and ConA was added into the test groups on the basis of adding different concentrations of polypeptides X1-X90. The cells were static cultured at 37° C. in a cell incubator for 48 h. After the cultivation was completed, 20 μL of MTT was added to each well, and the cultivation was continued for 4 h. Finally, all the solutions in each well were discarded. 100 μL DMSO was added to each well and shaken, and the OD value at 570 nm was detected with a microplate reader. Five parallel experiments were set in each well.

[1] = test system: IL-1β production by mouse peritoneal macrophages; assay: IL-1β production by mouse peritoneal macrophages (ELISA); assay type: cell-based; conditions: for Inhibition rate: IL-1β production, vs model group; for IL-1β: mouse peritoneal macrophages, 48 h, ELISA
Description: Mice were injected intraperitoneally with 1 mL of broth culture medium (containing 6% of starch). Three days later, mice peritoneal macrophages were taken aseptically and washed twice with 1640 culture medium, and the cell concentration was adjusted to 2×10^6 cells/mL. The solutions were injected into 24-well culture plates at 1 mL per well. The cells were incubated in a cell incubator for 3 h and vibrated once every 30 min to make the cells fully adhere to the wall. Then, the cells were washed twice with a culture solution to remove non-adhered cells. PBS was added to the blank group, positive drug Dex was added to the positive group, no drug was added to the model group, and polypeptides X1-X90 with low, medium and high concentrations were added to the test groups; and the cells were continuously cultured for 48 h after administration, and then centrifuged at 1000 r/min for 15 min. The supernatant was collected as a sample to be tested for IL-1β activity.

[2] = test system: retinal vascular endothelial nuclei; assay: Neovascularization in a rat model of premature retinopathy; assay type: in vivo, rats; conditions: dose 0.05 μM in the vitreous chamber from day 7 of modeling for one week; counted on day 14; oxygen-induced neonatal rats
Description: Using a fluctuating oxygen-induced animal model, newborn rats born naturally on the same day (within 12 h) were randomly divide into three groups: an oxygen model group, an oxygen treatment group and a normal control group. The oxygen model was further divided into three sub-group model groups, and the sub-group model groups and the treatment group were all placed in a semi-closed oxygen chamber made of organic glass; medical oxygen was introduced into the chamber, and the concentration was adjusted to 80%±2% by an oxygen meter; nitrogen was introduced into the oxygen chamber after 24 h, and the oxygen concentration was adjusted to 10%±2% rapidly and maintained for 24 h. This was repeated to keep the oxygen concentration in the oxygen chamber alternating between 80% and 10% every 24 h, the oxygen concentration was maintained for 7 d, and then the rats were fed in the air. The oxygen concentration was monitored 8 times a day, and the ambient temperature in the chamber was controlled at 23° C.±2° C. Bedding was replaced, feed was added, and water and mother rats were replaced once. The normal control group was placed in the animal room feeding environment. […] The oxygen treatment group was divided into three subgroups. On day 7 of modeling, X1-[…], […]-[…] and […]-X90 were injected in the vitreous chamber respectively, and the oxygen model group and the control group were only given normal saline for one week. On day 14, after the rats were anesthetized by diethyl ether and killed, eyeballs were extracted and fixed in 40 g/L paraformaldehyde solution for 24 h. Gradient dehydration by alcohol was performed, and the eyeballs were processed by xylene to be transparent. After waxing, the eyeballs were sectioned continuously to a thickness of 4μm, and the periphery of the optic disc should be avoided as much as possible. The sections were parallel to the sagittal plane from cornea to the optic disc. Ten sections of each eyeball were randomly taken and stained with hematoxylin eosin, the number of vascular endothelial nuclei that broke through the inner limiting membrane of the retina (only the number of vascular endothelial nuclei closely related to the inner limiting membrane were counted) was counted, and statistics of the average number of cells per section per eyeball was performed. Results: In the control group, there were no vascular endothelial nuclei that broke through the inner limiting membrane of the retina and grew into vitreous body, or the vascular endothelial nuclei were occasionally found in only a few sections. In the model group, there were many vascular endothelial nuclei that broke through the inner limiting membrane of the retina, some appeared alone, and some appeared in clusters. At the same time, on some sections, these vascular endothelial nuclei were also found adjacent to deep retinal vessels, confirming that they originated from the retina rather than the vitreous body or other ocular tissues. In the treatment group, only a few vascular endothelial nuclei that broke through the inner limiting membrane of retina could be seen in the sections.

Structure (SMILES)	A570 nm/A630 nm (splenic lymphocytes; polypeptide dose 0.05 μM)	Inhibition rate (%) (splenic lymphocytes; polypeptide dose 0.05 μM)	A570 nm/A630 nm (splenic lymphocytes; polypeptide dose 0.1 μM)	Inhibition rate (%) (splenic lymphocytes; polypeptide dose 0.1 μM)	A570 nm/A630 nm (splenic lymphocytes; polypeptide dose 0.2 μM)	Inhibition rate (%) (splenic lymphocytes; polypeptide dose 0.2 μM)	Inhibition rate ([1]; dose 0.05 μM) [%]	IL-1β ([1]; dose 0.05 μM) [pg/mL]	Inhibition rate ([1]; dose 0.1 μM) [%]	IL-1β ([1]; dose 0.1 μM) [pg/mL]	Inhibition rate ([1]; dose 0.2 μM) [%]	IL-1β ([1]; dose 0.2 μM) [pg/mL]	Nuclei count (retinal vascular endothelial nuclei, average per section per eyeball) [2]
C[C@H](NC(=O)CNC(=O)[C@H](CCCNC(=N)N)NC(=O)CCCCCCCCCCc1ccccc1N1C(=O)C=CC1=O)C(=O)N[C@@H](CC(=O)O)C(=O)N[C@@H](CCCNC(=N)N)C(=O)N[C@@H](C)C(=O)NCC(=O)NCC(=O)NCC(=O)NCC(=O)N[C@@H](CCCNC(=N)N)C(=O)NCC(=O)N[C@@H](CC(=O)O)C(=O)O [X22] (X72-RGADRAGGGGRGD-OH)	0.5694 ± 0.0561	15.69	0.4603 ± 0.0873	31.85	0.4521 ± 0.1194	33.06	29.53	663.21 ± 13.73	32.31	637.07 ± 19.81	38.53	578.51 ± 14.03	7.368 ± 1.842
C[C@H](NC(=O)CNC(=O)[C@H](CCCNC(=N)N)NC(=O)CCCCCCCCCCCCc1ccccc1N1C(=O)C=CC1=O)C(=O)N[C@@H](CC(=O)O)C(=O)N[C@@H](CCCNC(=N)N)C(=O)N[C@@H](C)C(=O)NCC(=O)NCC(=O)NCC(=O)NCC(=O)N[C@@H](CCCNC(=N)N)C(=O)NCC(=O)N[C@@H](CC(=O)O)C(=O)O [X24] (X84-RGADRAGGGGRGD-OH)	0.5823 ± 0.0474	14.12	0.5615 ± 0.1155	16.86	0.5142 ± 0.0636	23.87	29.88	659.97 ± 17.07	31.39	645.67 ± 11.87	41.69	548.82 ± 19.58	7.699 ± 3.108
C[C@H](NC(=O)CNC(=O)[C@H](CCCNC(=N)N)NC(=O)CCCCCCCc1cccc(N2C(=O)C=CC2=O)c1)C(=O)N[C@@H](CC(=O)O)C(=O)N[C@@H](CCCNC(=N)N)C(=O)N[C@@H](C)C(=O)NCC(=O)NCC(=O)NCC(=O)NCC(=O)N[C@@H](CCCNC(=N)N)C(=O)NCC(=O)N[C@@H](CC(=O)O)C(=O)O [X31] (X66-RGADRAGGGGRGD-OH)	0.6142 ± 0.0512	9.06	0.6134 ± 0.1148	9.18	0.5450 ± 0.0838	19.31	15.28	797.34 ± 10.46	18.74	764.81 ± 19.08	23.12	723.57 ± 18.58	7.228 ± 3.184
C[C@H](NC(=O)CNC(=O)[C@H](CCCNC(=N)N)NC(=O)Cc1cccc(N2C(=O)C=CC2=O)c1)C(=O)N[C@@H](CC(=O)O)C(=O)N[C@@H](CCCNC(=N)N)C(=O)N[C@@H](C)C(=O)NCC(=O)NCC(=O)NCC(=O)NCC(=O)N[C@@H](CCCNC(=N)N)C(=O)NCC(=O)N[C@@H](CC(=O)O)C(=O)O [X25] (X75-RGADRAGGGGRGD-OH)	0.5838 ± 0.0861	13.56	0.5673 ± 0.0906	16.01	0.4576 ± 0.1221	32.25	20.57	747.54 ± 18.25	24.22	713.21 ± 19.17	29.89	659.86 ± 10.24	8.923 ± 1.954
C[C@H](NC(=O)CNC(=O)[C@H](CCCNC(=N)N)NC(=O)CCCCCCCCCCCc1cccc(N2C(=O)C=CC2=O)c1)C(=O)N[C@@H](CC(=O)O)C(=O)N[C@@H](CCCNC(=N)N)C(=O)N[C@@H](C)C(=O)NCC(=O)NCC(=O)NCC(=O)NCC(=O)N[C@@H](CCCNC(=N)N)C(=O)NCC(=O)N[C@@H](CC(=O)O)C(=O)O [X35] (X58-RGADRAGGGGRGD-OH)	0.6122 ± 0.1219	9.36	0.5261 ± 0.0617	22.11	0.4415 ± 0.0616	34.63	23.62	718.81 ± 11.53	30.79	651.42 ± 15.51	34.61	615.43 ± 17.18	8.544 ± 3.087
C[C@H](NC(=O)CNC(=O)[C@H](CCCNC(=N)N)NC(=O)CCCCCCCCCCCCc1cccc(N2C(=O)C=CC2=O)c1)C(=O)N[C@@H](CC(=O)O)C(=O)N[C@@H](CCCNC(=N)N)C(=O)N[C@@H](C)C(=O)NCC(=O)NCC(=O)NCC(=O)NCC(=O)N[C@@H](CCCNC(=N)N)C(=O)NCC(=O)N[C@@H](CC(=O)O)C(=O)O [X36] (X65-RGADRAGGGGRGD-OH)	0.6051 ± 0.0633	10.41	0.4566 ± 0.1223	32.40	0.4401 ± 0.051	34.84	17.18	779.49 ± 11.56	34.09	620.34 ± 15.26	34.16	619.62 ± 11.89	8.726 ± 3.273
C[C@H](NC(=O)CNC(=O)[C@H](CCCNC(=N)N)NC(=O)CCCCCCc1cccc(N2C(=O)C=CC2=O)c1)C(=O)N[C@@H](CC(=O)O)C(=O)N[C@@H](CCCNC(=N)N)C(=O)N[C@@H](C)C(=O)NCC(=O)NCC(=O)NCC(=O)NCC(=O)N[C@@H](CCCNC(=N)N)C(=O)NCC(=O)N[C@@H](CC(=O)O)C(=O)O [X30] (X54-RGADRAGGGGRGD-OH)	0.5725 ± 0.0671	15.24	0.4914 ± 0.0652	27.24	0.4759 ± 0.0702	29.54	28.30	674.82 ± 10.45	33.96	621.53 ± 19.69	37.33	589.79 ± 19.66	8.256 ± 3.403
